Reference: US20150359886A1, “SYSTEM AND METHODS FOR NANOSTRUCTURE PROTECTED DELIVERY OF TREATMENT AGENT AND SELECTIVE RELEASE THEREOF” (priority 2012, published 2015)

What was measured:
MIA PaCa-2 (MIA) = assay: Cell viability assay (MTT dye assay), MIA PaCa-2 pancreatic cancer cells; format: cell-based, Human; conditions: for cell death (killing) of pancreatic cancer cells: FIG. 2, single agents even at high doses, combination at relatively low dose
Protocol: (§1) Science signaling 2, ra17 (2009).
(§2) Accordingly, experiments were carried out to examine the magnitude of chemosensitization of C6-ceramide on Taxol in different cancer cell lines. The pancreatic cancer cell lines L3.6. PANC-1 and MIA PaCa-2 (MIA) cells were selected for this experiment. […] However, the side effects noted above remain a challenging problem in this combination regimen and calls for a new delivery method.

PANC-1 = assay: Cell viability assay (MTT dye assay), PANC-1 pancreatic cancer cells; format: cell-based, Human; conditions: for cell death (killing) of pancreatic cancer cells: FIG. 2, single agents even at high doses, combination at relatively low dose
Protocol: as §1, §2

L3.6 cells = format: cell-based; conditions: for cell death (killing) of pancreatic cancer cells: FIG. 2, single agents even at high doses, combination at relatively low dose; for concentration required for a comparable effect with the exogenously applied treatment: exogenously applied Taxol + C6-ceramide combination, no CNT carrier
Protocol: Human pancreatic cancer lines PANC-1, MIA PaCa-2 (MIA) and L3.6 cells culture, cell viability assay (MTT dye assay) and Western blots assay were performed as described in Cao, C., et al. Galpha(i1) and Galpha(i3) are required for epidermal growth factor-mediated activation of the Akt-mTORC1 pathway. Science signaling 2, ra17 (2009).
Accordingly, experiments were carried out to examine the magnitude of chemosensitization of C6-ceramide on Taxol in different cancer cell lines. The pancreatic cancer cell lines L3.6. PANC-1 and MIA PaCa-2 (MIA) cells were selected for this experiment.
Using same pancreatic cancer cells (L3.6), the inductive heating release was we next tested the on-commandinductive-heating release of the encapsulated chemotherapeutic agents (Taxol and C6-ceramide) from CNTs. The drug-loaded CNTs were added to L3.6 cells for 12 hours, allowing them to be taken up by the cells. The cells were then washed with fresh basal medium (DMEM) 5 times to remove residual CNTs from the media, and a 30 min a.c. magnetic field (25 kHz) was applied to these cells to release the encapsulated drugs (Taxol and C6-ceramide) present in CNTs within the cells. After 48 h, the release of the drugs was inferred and assessed by the degree of cell death.

[1] = sensitization of Taxol-induced cell death

`CCCCCCCCCCCCC/C=C/[C@@H](O)[C@H](CO)NC(=O)CCCCC` [C6-ceramide] was tested, and the “cell death (killing) of pancreatic cancer cells” value (“cell death (killing)” below) (MIA PaCa-2 (MIA)) was “limited killing”, the “concentration needed to reach the chemosensitization effect” value (from here on “concentration needed”) (MIA PaCa-2 (MIA); [1]) was 5-10 micrograms per milliliter and the “cell death (killing)” value (PANC-1) was “limited killing”. The “concentration needed” value (PANC-1; [1]) was 5-10 micrograms per milliliter, the “cell death (killing)” value (L3.6 cells; L3.6) was “limited killing” and the “concentration needed” value (L3.6 cells; L3.6, sensitization of Taxol-induced cell death) was 5-10 micrograms per milliliter. The “concentration required for a comparable effect with the exogenously applied treatment” value (L3.6 cells) was 10 µg/mL.
In the case of `CC(=O)O[C@H]1C(=O)[C@@]2(C)[C@H]([C@H](OC(=O)c3ccccc3)[C@]3(O)C[C@H](OC(=O)[C@H](O)[C@@H](NC(=O)c4ccccc4)c4ccccc4)C(C)=C1C3(C)C)[C@]1(OC(C)=O)CO[C@@H]1C[C@@H]2O` [Taxol, Paclitaxel], the “cell death (killing)” value (MIA PaCa-2 (MIA)) is reported as “limited killing”, the “cell death (killing)” value (PANC-1) is reported as “limited killing” and the “cell death (killing)” value (L3.6 cells; L3.6) is reported as “limited killing”. The “concentration required for a comparable effect with the exogenously applied treatment” value (L3.6 cells) was 3 µg/mL.
